Source: US7312336B2, “Compounds with analgesic effect” (AstraZeneca Canada Inc., priority 1996, dated 2007)
Where a name gives a salt, the structure may show the parent alone.

Tested on: not given
Details: background statement; cited from earlier work

SMILES | analgesic activity
Oc1ccc2c3c1O[C@H]1c4[nH]c5ccccc5c4C[C@@]4(O)[C@@H](C2)N(CC2CC2)CC[C@]314 [naltrindole] | no analgesic activity

Target: δ receptor (Homo sapiens, UniProt P41143)
Details: background statement; cited from earlier work

δ receptor, sequence (P41143 whole entry): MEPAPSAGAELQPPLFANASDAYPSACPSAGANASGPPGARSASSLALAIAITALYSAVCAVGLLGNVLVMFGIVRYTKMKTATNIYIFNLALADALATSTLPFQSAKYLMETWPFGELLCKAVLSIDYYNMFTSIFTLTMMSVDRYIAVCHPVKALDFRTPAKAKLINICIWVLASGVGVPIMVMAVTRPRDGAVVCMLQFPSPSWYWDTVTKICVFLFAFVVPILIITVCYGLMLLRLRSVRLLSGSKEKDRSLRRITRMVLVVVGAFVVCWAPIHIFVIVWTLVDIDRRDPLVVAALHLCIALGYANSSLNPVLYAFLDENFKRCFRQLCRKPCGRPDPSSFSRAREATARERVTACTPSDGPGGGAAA

SMILES | selectivity for the δ receptor vs. μ receptor binding
Oc1ccc2c3c1O[C@H]1c4[nH]c5ccccc5c4C[C@@]4(O)[C@@H](C2)N(CC2CC2)CC[C@]314 [naltrindole] | < 10 fold

Tested on: not given
Details: not given

SMILES | melting point
CCN(CC)C(=O)c1ccc(C(O)(c2cccc(OC)c2)C2CCN(C(=O)OC(C)(C)C)CC2)cc1 (stereo not drawn) | 95 to 103 °C
CCN(CC)C(=O)c1ccc(C(=C2CCN(Cc3ccc(Cl)cc3Cl)CC2)c2ccccc2)cc1 (as salt: HCl) | 95 to 110 °C
CCN(CC)C(=O)c1ccc(C(=C2CCNCC2)c2cccc(OC)c2)cc1 (as salt: HCl) | > 90 °C (dec.)
CCN(CC)C(=O)c1ccc(C(=C2CCN(Cc3ccccc3)CC2)c2cccc(OC)c2)cc1 (as salt: HCl) | 100 to 110 °C
CCN(CC)C(=O)c1ccc(C(=C2CCN(Cc3ccccc3)CC2)c2ccccc2)cc1 (as salt: HCl) | 230 to 245 °C
CCN(CC)C(=O)c1ccc(C(=C2CCN(Cc3ccc(OC)cc3)CC2)c2ccccc2)cc1 (as salt: HCl) | 100 to 110 °C
CCN(CC)C(=O)c1ccc(C(=C2CCN(Cc3ccccc3)CC2)c2ccc(Cl)cc2)cc1 (as salt: salt) | 100 to 110 °C
CCN(CC)C(=O)c1ccc(C(=C2CCN(C3CCCCC3)CC2)c2ccccc2)cc1 (as salt: HCl) | 105 to 109 °C
CCN(CC)C(=O)c1ccc(C(=C2CCNCC2)c2cccc3cccnc23)cc1 (as salt: HCl) | > 170 °C (dec.)
CCN(CC)C(=O)c1ccc(C(O)(c2cccc3cccnc23)C2CCN(C(=O)OC(C)(C)C)CC2)cc1 (stereo not drawn) | 100 to 105 °C
